Laboratory results taken from patent US12281308B2, “Inhibition of protein kinases to treat Friedreich ataxia” (University of Massachusetts, priority 2018, dated 2025).

Key:
[1] = system: ROCK1; assay: qRT-PCR analysis monitoring ROCK1 expression (shRNA knockdown) in FRDA (GM23404) iPSCs; assay type: cell-based, human; details: FRDA (GM23404) iPSCs expressing the shRNA
Text: (§1) FIGS. 4A-E. Identification of ROCK2 as a protein kinase that mediates repression of the mutant FXN gene. (A) qRT-PCR analysis monitoring ROCK1 and ROCK2 expression in FRDA (GM23404) iPSCs expressing the two ROCK1 shRNAs used in the experiments shown in FIGS. 1-3 (hereafter called ROCK1-1 and ROCK1-2). […] (B) qRT-PCR analysis monitoring knockdown efficiencies of selective ROCK1 (ROCK1-3) and ROCK2 shRNAs.
(§2) Of the 8 new FXN-RFs that we identified, we are particularly enthusiastic about ROCK1, a serine-threonine kinase and major effector of the small GTPase RhoA (Schofield and Bernard, Crit Rev Biochem Mol Biol, 2013, 48 (4): 301-316. ROCK1 phosphory lates a variety of substrates, some of which can affect cell signaling pathways, such as PI3K/AKT (Ruth et al., J Invest Dermatol, 2006, 126 (4): 862-868), and transcription factors, such as NF-kB (Shimizu et al., Mol Hum Reprod, 2007, 13 (3): 181-187) and Runx2 (Huang et al., Exp Ther Med, 2018, 15 (5): 4457-4464). In addition to ROCK1, mammalian cells express another ROCK isoform encoded by a distinct gene, ROCK2. […] ROCK1 and ROCK2 share ˜65% overall amino acid identity and 92% identity in their kinase domains, with 100% identity within their ATP-binding pockets (Nakagawa et al., FEBS Lett, 1996, 392 (2): 189-193; Takahashi et al., Genomics, 1999, 55 (2): 235-237). […] Thus, both ROCK1 and ROCK2 are protein kinase FXN-RFs.

[2] = system: ROCK2; assay: qRT-PCR analysis monitoring ROCK2 expression (shRNA knockdown) in FRDA (GM23404) iPSCs; assay type: cell-based, human; details: FRDA (GM23404) iPSCs expressing the shRNA
Text: as §1, §2

[3] = system: ACO2 and ISCU; assay: Immunoblot analysis of mitochondrial Fe-S proteins in FRDA cardiomyocytes; assay type: cell-based, human; details: fasudil 1 μM, KD025 1 μM, ripasudil 0.5 μM
[4] = system: ACO2 and ISCU; assay: Immunoblot analysis of mitochondrial Fe-S proteins in FRDA neurons; assay type: cell-based, human; details: fasudil 1 μM, KD025 1 μM, ripasudil 0.5 μM
[5] = system: FRDA neurons; assay: Mitochondrial oxygen consumption rate (Agilent Seahorse XF Analyzer) in FRDA neurons; assay type: cell-based, human; details: small molecule ROCK1/2 inhibitor
Text: (§3) FIGS. 3A-D. Inhibition of protein kinase FXN-RFs can ameliorate characteristic mitochondrial defects of FRDA post-mitotic neurons and cardiomyocytes. (A, B) Quantification of flow cytometry analysis of normal and FRDA neurons (A) or normal and FRDA CMCs (B) expressing an FXN-RF shRNA and stained with MitoSOX. (C, D) Analysis of the mitochondrial oxygen consumption rate in normal and FRDA neurons (C) or normal and FRDA CMCs (D) expressing an FXN-RF shRNA. […] (C, D) Analysis of the mitochondrial oxygen consumption rate in FRDA neurons (C) or FRDA CMCs (D) treated with a small molecule ROCK1/2 inhibitor. (E, F) Immunoblot analysis showing levels of mitochondrial proteins ACO and ISCU in FRDA neurons (E) or FRDA CMCs (F) treated with fasudil (1 μM), KD025 (1 μM), or ripasudil (0.5 μM). […] We next asked whether FXN-RF inhibition could ameliorate two characteristic mitochondrial defects of FRDA neurons and cardiomyocytes: increased levels of reactive oxygen species (ROS) and decreased oxygen consumption. In the first set of experiments, FRDA neurons and cardiomyocytes expressing a protein kinase FXN-RF shRNA were stained with MitoSOX (an indicator of mitochondrial superoxide levels and mitochondrial ROS production) followed by flow cytometry analysis. As expected. FRDA neurons and cardiomyocytes had increased levels of mitochondrial ROS production compared to normal neurons and cardiomyocytes (FIGS. 3A, B). […] In the second set of experiments, we measured mitochondrial oxygen consumption rate, which is related to ATP production, using an Agilent Seahorse XF Analyzer. As expected, mitochondrial oxygen consumption rate in FRDA neurons and cardiomyocytes was ˜60% of the level observed in normal neurons and cardiomyocytes (FIGS. 3C, D).

[6] = system: FRDA cardiomyocytes; assay: Mitochondrial oxygen consumption rate (Agilent Seahorse XF Analyzer) in FRDA cardiomyocytes; assay type: cell-based, human; details: small molecule ROCK1/2 inhibitor
Text: as §3

[7] = system: mutant FXN gene; assay: Massively parallel short-read sequencing (RNA-seq) of FXN transcript levels in FRDA neurons; assay type: cell-based, human; details: vs DMSO, Illumina platform
[8] = system: ROCK1/2; details: literature; cited from earlier work

| Molecule | ROCK1 expression (knockdown) [1] | ROCK2 expression (knockdown) [2] | levels of ACO2 [3] | levels of ISCU [3] | levels of ACO2 [4] | levels of ISCU [4] | mitochondrial oxygen consumption rate [5] | mitochondrial oxygen consumption rate [6] | FXN transcript levels (RNA-seq) [7] | oral activity [8] | tolerability / adverse effects [8] |
| --- | --- | --- | --- | --- | --- | --- | --- | --- | --- | --- | --- |
| ROCK1-3: selective ROCK1 shRNA (3), SEQ ID NO: 13 (CCGGGCACCAGTTGTACCCGATTTACTCGAGTAAATCGGGTACAACTGGTGCTTTTTG) | knocked down ROCK1 | knocked down ROCK1 but not ROCK2 |  |  |  |  |  |  |  |  |  |
| O=S(=O)(c1cccc2cnccc12)N1CCCNCC1 [fasudil, 1-(5-isoquinolinesulfonyl)-homopiperazine] |  |  | increased levels of ACO2 and ISCU comparable to that observed in normal neurons and cardiomyocytes | increased levels of ACO2 and ISCU comparable to that observed in normal neurons and cardiomyocytes | increased levels of ACO2 and ISCU comparable to that observed in normal neurons and cardiomyocytes | increased levels of ACO2 and ISCU comparable to that observed in normal neurons and cardiomyocytes | increased mitochondrial oxygen consumption rate | increased mitochondrial oxygen consumption rate | Upregulation of the mutant FXN gene | orally active | well tolerated without adverse effects |
| CC(C)NC(=O)COc1cccc(-c2nc(Nc3ccc4[nH]ncc4c3)c3ccccc3n2)c1 [KD025] |  |  | increased levels of ACO2 and ISCU comparable to that observed in normal neurons and cardiomyocytes | increased levels of ACO2 and ISCU comparable to that observed in normal neurons and cardiomyocytes | increased levels of ACO2 and ISCU comparable to that observed in normal neurons and cardiomyocytes | increased levels of ACO2 and ISCU comparable to that observed in normal neurons and cardiomyocytes |  |  | Upregulation of the mutant FXN gene |  |  |
| ROCK2 shRNA: selective ROCK2 shRNA, SEQ ID NO: 14 (CCGGGCACCAGTTGTACCCGATTTACTCGAGTAAATCGGGTACAACTGGTGCTTTTTG) | knocked down ROCK2 but not ROCK1 | knocked down ROCK2 |  |  |  |  |  |  |  |  |  |
| ROCK1-2: ROCK1 shRNA (2), SEQ ID NO: 12; knocks down both ROCK1 and ROCK2 (CCGGGCATTCCAAGATGATCGTTATCTCGAGATAACGATCATCTTGGAATGCTTTTTG) | knocked down both ROCK1 and ROCK2 | knocked down both ROCK1 and ROCK2 |  |  |  |  |  |  |  |  |  |
| ROCK1-1: ROCK1 shRNA (1), SEQ ID NO: 11; knocks down both ROCK1 and ROCK2 (CCGGCGGGTTGTTCAGATTGAGAAACTCGAGTTTCTCAATCTGAACAACCCGTTTTTG) | knocked down both ROCK1 and ROCK2 | knocked down both ROCK1 and ROCK2 |  |  |  |  |  |  |  |  |  |
| C[C@H]1CNCCCN1S(=O)(=O)c1cccc2cncc(F)c12 [ripasudil, 4-fluoro-5-[[(2S)-2-methyl-1,4-diazepan-1-yl]sulfonyl]isoquinoline] |  |  | increased levels of ACO2 and ISCU comparable to that observed in normal neurons and cardiomyocytes | increased levels of ACO2 and ISCU comparable to that observed in normal neurons and cardiomyocytes | increased levels of ACO2 and ISCU comparable to that observed in normal neurons and cardiomyocytes | increased levels of ACO2 and ISCU comparable to that observed in normal neurons and cardiomyocytes | increased mitochondrial oxygen consumption rate | increased mitochondrial oxygen consumption rate |  | orally active | well tolerated without adverse effects |
| C[C@@H](N)[C@H]1CC[C@H](C(=O)Nc2ccncc2)CC1.Cl.Cl [Y27632, (+)-(R)-trans-4-(1-aminoethyl)-N-(4-pyridyl)cyclohexanecarboxamide dihydrochloride] |  |  |  |  |  |  | increased mitochondrial oxygen consumption rate | increased mitochondrial oxygen consumption rate |  |  |  |
